Columns and labels:
[1] = tested on: Erwinia carotovora; test: Effect of quat salts on Erwinia carotovora (percent inhibition); type: cell-based
Method: To measure the antibacterial effectiveness of the quat salts, the effect of various salts, at an application rate of 50 ppm, was measured. The data regarding the effectiveness is summarized below:
The effectiveness of lower concentrations of the quat salts at inhibiting Erwinia carotovora infection was also measured, where various additives were also added.

[2] = tested on: fungal and bacterial pathogens; test: Field control trial, plant growth, grower rating, phytotoxicity, overall control; type: in vivo; conditions: comparison area
From the text: This composition was applied to a field to which other treatments had been applied. The conditions under which this field control was studies are summarized below.
Treatment—400 ppm Dicocodimethylammonium chloride+1200 ppm EDTA+400 ppm Citric acid+40 ppm soyamine+3000 ppm soybean oil+180 ppm Tergitol NP-6
The field was visited the day of application for a pre-spray disease rating. Major problems were observed, and minor problems were observed as well. Ratings were made on the major diseases Bacterial Spot, Grey Mold, Blight, and Leaf Spot. The observations and % ratings were also taken for Rhizoctonia, Powdery Mildew, Stem Rot, and Bacterial Speck.
The quat salt treatment was applied at a rate of 1 gallon of the composition/100 gallons of water/acre. This relatively low treatment rate provided some concerns regarding complete coverage due to the low volume of water and bushiness of the plants. Blight and Stem Rot were both located at the lower portion of the plant and concealed by a lot of foliage.
Four plants had been marked on day 1 so that their progress could be tracked both in terms of growth and disease control. All four had grown between 5 and 7 inches in height with a tremendous amount of flowering and new growth present.
The grower gave the Treatment a 4 on a scale of 1 (Poor) to 5 (Perfect), when compared to hydrogen peroxide. H is rating for hydrogen peroxide was 2.5 to 3.

[3] = on contact lenses; cited from earlier work
[4] = tested on: Staphylococcus; conditions: on Staphylococcus; cited from earlier work

Compound	Percent Inhibition ([1]; application rate of 50 ppm)	also measured
Ditallow dimethyl ammonium chloride	50%	–
Dicoco dimethyl ammonium chloride	75%	Percent Inhibition ([1]; 30 ppm dicoco dimethyl ammonium chloride with additive (level relative to quat)): 40%
Cocoalkyltrimethyl ammonium chloride	25%	–
Soyalkyltrimethyl ammonium chloride	35%	–
Tallowalkyltrimethyl ammonium chloride	30%	–
S=C([S-])NCCNC(=S)[S-].[Zn+2] [Dithane, zinc ethylenebis(dithiocarbamate)]	–	response of diseases in treated area [2]: responding (especially on molds and mildews) but not as rapid and completely
Benzalkonium chloride [BAC]	–	effectiveness relative to other QACs [3]: about 6 times; effectiveness relative to other QACs tested [4]: about 2.5

Source: patent publication US7476646B1, “Agricultural promoters/active ingredients” (CJB Industries, Inc., priority 2004, dated 2009)
